# pIC50: −log10 of the molar value.
# Biological target: CDK9/cyclin T1 (Homo sapiens, UniProt P50750)
# Assay: Inhibition of His-tagged full length human recombinant CDK9/cyclinT1 using KTFCGTPEYLAPEVRREPRILSEEEQEMFRDFDYIADWC as substrate incubated for 60 mins by ADP-Glo kinase assay
# Type: protein-complex assay
# Settings: not given
# CDK9/cyclin T1, sequence (O60563 whole entry): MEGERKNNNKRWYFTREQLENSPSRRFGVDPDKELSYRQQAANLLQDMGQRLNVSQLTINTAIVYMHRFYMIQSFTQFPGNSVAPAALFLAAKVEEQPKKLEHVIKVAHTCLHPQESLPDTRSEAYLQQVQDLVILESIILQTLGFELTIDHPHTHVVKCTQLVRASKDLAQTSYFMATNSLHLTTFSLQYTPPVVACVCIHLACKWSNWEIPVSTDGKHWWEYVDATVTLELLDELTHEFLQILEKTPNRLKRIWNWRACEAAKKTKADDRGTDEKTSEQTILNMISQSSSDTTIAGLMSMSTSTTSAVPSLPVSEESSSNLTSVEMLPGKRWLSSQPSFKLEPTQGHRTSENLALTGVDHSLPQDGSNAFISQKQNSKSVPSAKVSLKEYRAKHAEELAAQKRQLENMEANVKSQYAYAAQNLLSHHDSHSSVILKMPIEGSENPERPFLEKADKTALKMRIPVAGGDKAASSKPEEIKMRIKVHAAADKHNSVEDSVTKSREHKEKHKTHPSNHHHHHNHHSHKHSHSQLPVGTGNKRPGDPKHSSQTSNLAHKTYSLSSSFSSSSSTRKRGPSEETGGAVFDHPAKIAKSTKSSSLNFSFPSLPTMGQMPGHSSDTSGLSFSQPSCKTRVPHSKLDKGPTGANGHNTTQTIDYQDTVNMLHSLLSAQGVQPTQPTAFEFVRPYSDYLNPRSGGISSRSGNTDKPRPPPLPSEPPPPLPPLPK
# CDK9/cyclin T1, sequence (P50750 whole entry): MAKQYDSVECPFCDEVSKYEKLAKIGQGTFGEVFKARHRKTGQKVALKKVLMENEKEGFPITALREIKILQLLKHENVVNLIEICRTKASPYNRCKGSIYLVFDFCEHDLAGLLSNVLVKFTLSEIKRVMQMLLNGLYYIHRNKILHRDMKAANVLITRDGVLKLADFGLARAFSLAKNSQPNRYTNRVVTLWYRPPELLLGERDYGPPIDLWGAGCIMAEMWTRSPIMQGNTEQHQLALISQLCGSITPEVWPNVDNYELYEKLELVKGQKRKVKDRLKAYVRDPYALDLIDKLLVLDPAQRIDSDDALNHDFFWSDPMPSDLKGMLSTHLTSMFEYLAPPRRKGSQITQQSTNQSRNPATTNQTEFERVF
row,SMILES,pIC50
1,CC(C)Oc1cc(F)ccc1-c1ccnc(NC(=O)Nc2ccc(C(=O)N3CCC(F)(F)CC3)cc2)c1,< 7.30
2,CC(=O)N1CCN(C(=O)c2cccc(NC(=O)Nc3cc(-c4ccc(F)cc4OC(C)C)ccn3)c2)CC1,< 7.30
3,COc1ccc(-c2ccnc(NC(=O)Nc3cccc(C(=O)N4CCOCC4)c3)c2)cc1,< 7.30
4,CC(=O)N1CCN(C(=O)c2ccc(NC(=O)Nc3cc(-c4ccc(F)cc4OC(C)C)ccn3)cc2)CC1,< 7.30
5,CCN1CCN(C(=O)c2cccc(NC(=O)Nc3cc(-c4ccc(F)cc4OC(C)C)ccn3)c2)CC1,7.78
6,O=C(Nc1cccc(C(=O)N2CCOCC2)c1)Nc1cc(-c2ccc(F)cc2F)ccn1,< 7.30
7,CC(C)Oc1cc(F)ccc1-c1ccnc(NC(=O)Nc2ccc(C(=O)N3CCCC3)cc2)c1,< 7.30
8,CC(C)Oc1cc(F)ccc1-c1ccnc(NC(=O)Nc2ccc(C(=O)N3CCOCC3)cc2)c1,< 7.30
9,O=C(Nc1cccc(C(=O)N2CCOCC2)c1)Nc1cc(-c2cccc(Cl)c2)ccn1,7.45
10,CC(C)Oc1cc(F)ccc1-c1ccnc(NC(=O)Nc2ccc(C(=O)N3CCN(C)CC3)cc2)c1,< 7.30
11,CC(C)Oc1cc(F)ccc1-c1ccnc(NC(=O)Nc2ccc(C(=O)N3CCN(C(C)C)CC3)cc2)c1,< 7.30
12,O=C(Nc1cccc(C(=O)N2CCOCC2)c1)Nc1cc(-c2ccc(Cl)cc2F)ccn1,< 7.30
13,O=C(Nc1cccc(C(=O)N2CCOCC2)c1)Nc1cc(-c2ccccc2F)ccn1,< 7.30
14,CC(C)Oc1cc(F)ccc1-c1ccnc(NC(=O)Nc2cccc(C(=O)N3CCOCC3)c2)c1,7.68
15,CC(C)Oc1cc(F)ccc1-c1ccnc(NC(=O)Nc2cccc(C(=O)N3CCN(C(C)C)CC3)c2)c1,< 7.30
16,CC(C)Oc1cc(F)ccc1-c1ccnc(NC(=O)Nc2cccc(C(=O)N3CCCN(C)CC3)c2)c1,< 7.30
17,O=C(Nc1cccc(C(=O)N2CCOCC2)c1)Nc1cc(-c2ccc(F)cc2)ccn1,< 7.30
18,COc1ccccc1-c1ccnc(NC(=O)Nc2cccc(C(=O)N3CCOCC3)c2)c1,7.34
19,Cc1ccc(-c2ccnc(NC(=O)Nc3cccc(C(=O)N4CCOCC4)c3)c2)cc1,< 7.30
20,O=C(Nc1cccc(C(=O)N2CCOCC2)c1)Nc1cc(-c2ccc(F)cc2OCC2CCCC2)ccn1,7.23
21,COc1cc(F)ccc1-c1ccnc(NC(=O)Nc2cccc(C(=O)N3CCOCC3)c2)c1,7.56
22,O=C(Nc1cccc(C(=O)N2CCOCC2)c1)Nc1cc(-c2cc(F)c(F)c(F)c2)ccn1,< 7.30
23,CCOc1cc(F)ccc1-c1ccnc(NC(=O)Nc2cccc(C(=O)N3CCOCC3)c2)c1,7.52
24,CC(C)Oc1cc(F)ccc1-c1ccnc(NC(=O)Nc2cccc(C(=O)N3CCCC3)c2)c1,7.45
25,O=C(Nc1cccc(C(=O)N2CCOCC2)c1)Nc1cc(-c2cccc(F)c2)ccn1,< 7.30
26,O=C(Nc1cccc(C(=O)N2CCOCC2)c1)Nc1cc(-c2ccc(F)cc2OCC2CCCCC2)ccn1,7.05
27,O=C(Nc1cccc(C(=O)N2CCOCC2)c1)Nc1cc(-c2ccc(F)c(F)c2)ccn1,< 7.30
28,CCN1CCN(C(=O)c2ccc(NC(=O)Nc3cc(-c4ccc(F)cc4OC(C)C)ccn3)cc2)CC1,< 7.30
29,O=C(Nc1cccc(C(=O)N2CCOCC2)c1)Nc1cc(-c2cc(F)cc(F)c2)ccn1,< 7.30

# System: HCT-116
# Assay: Antiproliferative activity against human HCT-116 cells assessed as inhibition of cell growth incubated for 48 hrs by CCK8 assay
# Type: functional
# Settings: not given
row,SMILES,GI50 [nM]
1,CC(C)Oc1cc(F)ccc1-c1ccnc(NC(=O)Nc2ccc(C(=O)N3CCC(F)(F)CC3)cc2)c1,> 1000
2,CC(=O)N1CCN(C(=O)c2cccc(NC(=O)Nc3cc(-c4ccc(F)cc4OC(C)C)ccn3)c2)CC1,> 1000
3,COc1ccc(-c2ccnc(NC(=O)Nc3cccc(C(=O)N4CCOCC4)c3)c2)cc1,> 1000
4,CC(=O)N1CCN(C(=O)c2ccc(NC(=O)Nc3cc(-c4ccc(F)cc4OC(C)C)ccn3)cc2)CC1,> 1000
5,CCN1CCN(C(=O)c2cccc(NC(=O)Nc3cc(-c4ccc(F)cc4OC(C)C)ccn3)c2)CC1,200
6,O=C(Nc1cccc(C(=O)N2CCOCC2)c1)Nc1cc(-c2ccc(F)cc2F)ccn1,> 1000
7,CC(C)Oc1cc(F)ccc1-c1ccnc(NC(=O)Nc2ccc(C(=O)N3CCCC3)cc2)c1,> 1000
8,CC(C)Oc1cc(F)ccc1-c1ccnc(NC(=O)Nc2ccc(C(=O)N3CCOCC3)cc2)c1,> 1000
9,O=C(Nc1cccc(C(=O)N2CCOCC2)c1)Nc1cc(-c2cccc(Cl)c2)ccn1,> 1000
10,CC(C)Oc1cc(F)ccc1-c1ccnc(NC(=O)Nc2ccc(C(=O)N3CCN(C)CC3)cc2)c1,> 1000
11,CC(C)Oc1cc(F)ccc1-c1ccnc(NC(=O)Nc2ccc(C(=O)N3CCN(C(C)C)CC3)cc2)c1,> 1000
12,O=C(Nc1cccc(C(=O)N2CCOCC2)c1)Nc1cc(-c2ccc(Cl)cc2F)ccn1,> 1000
13,O=C(Nc1cccc(C(=O)N2CCOCC2)c1)Nc1cc(-c2ccccc2F)ccn1,> 1000
14,CC(C)Oc1cc(F)ccc1-c1ccnc(NC(=O)Nc2cccc(C(=O)N3CCOCC3)c2)c1,370
15,CC(C)Oc1cc(F)ccc1-c1ccnc(NC(=O)Nc2cccc(C(=O)N3CCN(C(C)C)CC3)c2)c1,960
16,Cc1ncc(-c2ccnc(Nc3ccc(S(C)(=O)=O)cc3)n2)n1C(C)C [AZD-5438],480
17,CC(C)Oc1cc(F)ccc1-c1ccnc(NC(=O)Nc2cccc(C(=O)N3CCCN(C)CC3)c2)c1,> 1000
18,O=C(Nc1cccc(C(=O)N2CCOCC2)c1)Nc1cc(-c2ccc(F)cc2)ccn1,> 1000
19,COc1ccccc1-c1ccnc(NC(=O)Nc2cccc(C(=O)N3CCOCC3)c2)c1,> 1000
20,Cc1ccc(-c2ccnc(NC(=O)Nc3cccc(C(=O)N4CCOCC4)c3)c2)cc1,> 1000
21,O=C(Nc1cccc(C(=O)N2CCOCC2)c1)Nc1cc(-c2ccc(F)cc2OCC2CCCC2)ccn1,> 1000
22,COc1cc(F)ccc1-c1ccnc(NC(=O)Nc2cccc(C(=O)N3CCOCC3)c2)c1,> 1000
23,O=C(Nc1cccc(C(=O)N2CCOCC2)c1)Nc1cc(-c2cc(F)c(F)c(F)c2)ccn1,> 1000
24,CCOc1cc(F)ccc1-c1ccnc(NC(=O)Nc2cccc(C(=O)N3CCOCC3)c2)c1,> 1000
25,CC(C)Oc1cc(F)ccc1-c1ccnc(NC(=O)Nc2cccc(C(=O)N3CCCC3)c2)c1,> 1000
26,O=C(Nc1cccc(C(=O)N2CCOCC2)c1)Nc1cc(-c2cccc(F)c2)ccn1,> 1000
27,O=C(Nc1cccc(C(=O)N2CCOCC2)c1)Nc1cc(-c2ccc(F)cc2OCC2CCCCC2)ccn1,> 1000
28,O=C(Nc1cccc(C(=O)N2CCOCC2)c1)Nc1cc(-c2ccc(F)c(F)c2)ccn1,> 1000
29,CCN1CCN(C(=O)c2ccc(NC(=O)Nc3cc(-c4ccc(F)cc4OC(C)C)ccn3)cc2)CC1,> 1000
30,O=C(Nc1cccc(C(=O)N2CCOCC2)c1)Nc1cc(-c2cc(F)cc(F)c2)ccn1,> 1000

# System: HT-29
# Assay: Antiproliferative activity against human HT-29 cells assessed as inhibition of cell growth incubated for 48 hrs by CCK8 assay
# Type: functional
# Settings: not given
row,SMILES,GI50 [nM]
1,CC(C)Oc1cc(F)ccc1-c1ccnc(NC(=O)Nc2ccc(C(=O)N3CCC(F)(F)CC3)cc2)c1,> 1000
2,CC(=O)N1CCN(C(=O)c2cccc(NC(=O)Nc3cc(-c4ccc(F)cc4OC(C)C)ccn3)c2)CC1,> 1000
3,COc1ccc(-c2ccnc(NC(=O)Nc3cccc(C(=O)N4CCOCC4)c3)c2)cc1,> 1000
4,CC(=O)N1CCN(C(=O)c2ccc(NC(=O)Nc3cc(-c4ccc(F)cc4OC(C)C)ccn3)cc2)CC1,> 1000
5,CCN1CCN(C(=O)c2cccc(NC(=O)Nc3cc(-c4ccc(F)cc4OC(C)C)ccn3)c2)CC1,570
6,O=C(Nc1cccc(C(=O)N2CCOCC2)c1)Nc1cc(-c2ccc(F)cc2F)ccn1,> 1000
7,CC(C)Oc1cc(F)ccc1-c1ccnc(NC(=O)Nc2ccc(C(=O)N3CCCC3)cc2)c1,> 1000
8,CC(C)Oc1cc(F)ccc1-c1ccnc(NC(=O)Nc2ccc(C(=O)N3CCOCC3)cc2)c1,> 1000
9,O=C(Nc1cccc(C(=O)N2CCOCC2)c1)Nc1cc(-c2cccc(Cl)c2)ccn1,> 1000
10,CC(C)Oc1cc(F)ccc1-c1ccnc(NC(=O)Nc2ccc(C(=O)N3CCN(C)CC3)cc2)c1,> 1000
11,CC(C)Oc1cc(F)ccc1-c1ccnc(NC(=O)Nc2ccc(C(=O)N3CCN(C(C)C)CC3)cc2)c1,> 1000
12,O=C(Nc1cccc(C(=O)N2CCOCC2)c1)Nc1cc(-c2ccc(Cl)cc2F)ccn1,> 1000
13,O=C(Nc1cccc(C(=O)N2CCOCC2)c1)Nc1cc(-c2ccccc2F)ccn1,> 1000
14,CC(C)Oc1cc(F)ccc1-c1ccnc(NC(=O)Nc2cccc(C(=O)N3CCOCC3)c2)c1,990
15,CC(C)Oc1cc(F)ccc1-c1ccnc(NC(=O)Nc2cccc(C(=O)N3CCN(C(C)C)CC3)c2)c1,670
16,Cc1ncc(-c2ccnc(Nc3ccc(S(C)(=O)=O)cc3)n2)n1C(C)C [AZD-5438],700
17,CC(C)Oc1cc(F)ccc1-c1ccnc(NC(=O)Nc2cccc(C(=O)N3CCCN(C)CC3)c2)c1,> 1000
18,O=C(Nc1cccc(C(=O)N2CCOCC2)c1)Nc1cc(-c2ccc(F)cc2)ccn1,> 1000
19,COc1ccccc1-c1ccnc(NC(=O)Nc2cccc(C(=O)N3CCOCC3)c2)c1,> 1000
20,Cc1ccc(-c2ccnc(NC(=O)Nc3cccc(C(=O)N4CCOCC4)c3)c2)cc1,> 1000
21,O=C(Nc1cccc(C(=O)N2CCOCC2)c1)Nc1cc(-c2ccc(F)cc2OCC2CCCC2)ccn1,> 1000
22,COc1cc(F)ccc1-c1ccnc(NC(=O)Nc2cccc(C(=O)N3CCOCC3)c2)c1,> 1000
23,O=C(Nc1cccc(C(=O)N2CCOCC2)c1)Nc1cc(-c2cc(F)c(F)c(F)c2)ccn1,> 1000
24,CCOc1cc(F)ccc1-c1ccnc(NC(=O)Nc2cccc(C(=O)N3CCOCC3)c2)c1,> 1000
25,CC(C)Oc1cc(F)ccc1-c1ccnc(NC(=O)Nc2cccc(C(=O)N3CCCC3)c2)c1,180
26,O=C(Nc1cccc(C(=O)N2CCOCC2)c1)Nc1cc(-c2cccc(F)c2)ccn1,> 1000
27,O=C(Nc1cccc(C(=O)N2CCOCC2)c1)Nc1cc(-c2ccc(F)cc2OCC2CCCCC2)ccn1,> 1000
28,O=C(Nc1cccc(C(=O)N2CCOCC2)c1)Nc1cc(-c2ccc(F)c(F)c2)ccn1,> 1000
29,CCN1CCN(C(=O)c2ccc(NC(=O)Nc3cc(-c4ccc(F)cc4OC(C)C)ccn3)cc2)CC1,> 1000
30,O=C(Nc1cccc(C(=O)N2CCOCC2)c1)Nc1cc(-c2cc(F)cc(F)c2)ccn1,> 1000

# System: HCT-116
# Assay: Antiproliferative activity against human HCT-116 cells assessed as reduction in colony formation incubated for 14 days by crystal violet staining based analysis
# Type: functional, cell-based
# Settings: dose 50-400 nM, time 14.0 day
row,SMILES,Activity
1,Cc1ncc(-c2ccnc(Nc3ccc(S(C)(=O)=O)cc3)n2)n1C(C)C [AZD-5438],Dose-dependent-effect

# System: not listed separately
# Assay: Metabolic stability in human liver microsome assessed as half life at 100 uM pre-incubated with compound for 60 mins followed by NADPH addition and measured up to 60 mins by LC-MS/MS analysis
# Type: ADME
# Settings: liver microsomes, time < 120 min
row,SMILES,half-life at 100 µM [min]
1,C[C@]12CC[C@H]3[C@@H](CCC4=CC(=O)CC[C@@]43C)[C@@H]1CC[C@@H]2O [TESTOSTERONE],7.8
2,O=C(O)Cc1ccccc1Nc1c(Cl)cccc1Cl [DICLOFENAC],6.4

# System: not listed separately
# Assay: Stability in human plasma assessed as half life at 100 uM measured up to 120 mins by LC-MS/MS analysis
# Type: ADME, cell-free
# Settings: not given
row,SMILES,half-life at 100 µM [min]
1,CC(C)[N+](C)(CCOC(=O)C1c2ccccc2Oc2ccccc21)C(C)C.[Br-] [PROPANTHELINE BROMIDE],15.6

# Biological target: CYP1A2 (Homo sapiens, UniProt P05177)
# Sequence (P05177 whole entry): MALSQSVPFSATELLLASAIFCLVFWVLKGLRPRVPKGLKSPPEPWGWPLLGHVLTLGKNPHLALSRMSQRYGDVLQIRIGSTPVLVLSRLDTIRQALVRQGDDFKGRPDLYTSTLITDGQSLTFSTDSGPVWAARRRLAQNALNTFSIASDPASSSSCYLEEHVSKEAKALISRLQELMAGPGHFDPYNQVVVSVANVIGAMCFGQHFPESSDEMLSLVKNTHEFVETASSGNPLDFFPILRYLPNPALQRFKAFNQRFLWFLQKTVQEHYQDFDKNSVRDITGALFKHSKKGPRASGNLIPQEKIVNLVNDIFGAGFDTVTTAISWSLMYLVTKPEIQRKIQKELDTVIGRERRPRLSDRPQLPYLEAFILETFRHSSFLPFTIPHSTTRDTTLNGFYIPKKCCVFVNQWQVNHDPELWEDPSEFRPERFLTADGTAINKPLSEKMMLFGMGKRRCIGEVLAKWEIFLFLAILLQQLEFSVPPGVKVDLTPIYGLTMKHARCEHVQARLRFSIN
# Assay: Inhibition of CYP1A2 in human liver microsome at 10 uM pre-incubated with compound for 10 mins in presence of NADPH-regenerating system by LC-MS/MS analysis relative to control
# Type: ADME
# Settings: liver microsomes
row,SMILES,inhibition at 10 µM [%]
1,O=c1cc(-c2ccccc2)oc2c1ccc1ccccc12 [ALPHA-NAPHTHOFLAVONE],88.4

# Biological target: CYP2C9 (Homo sapiens, UniProt P11712)
# Sequence (P11712 whole entry): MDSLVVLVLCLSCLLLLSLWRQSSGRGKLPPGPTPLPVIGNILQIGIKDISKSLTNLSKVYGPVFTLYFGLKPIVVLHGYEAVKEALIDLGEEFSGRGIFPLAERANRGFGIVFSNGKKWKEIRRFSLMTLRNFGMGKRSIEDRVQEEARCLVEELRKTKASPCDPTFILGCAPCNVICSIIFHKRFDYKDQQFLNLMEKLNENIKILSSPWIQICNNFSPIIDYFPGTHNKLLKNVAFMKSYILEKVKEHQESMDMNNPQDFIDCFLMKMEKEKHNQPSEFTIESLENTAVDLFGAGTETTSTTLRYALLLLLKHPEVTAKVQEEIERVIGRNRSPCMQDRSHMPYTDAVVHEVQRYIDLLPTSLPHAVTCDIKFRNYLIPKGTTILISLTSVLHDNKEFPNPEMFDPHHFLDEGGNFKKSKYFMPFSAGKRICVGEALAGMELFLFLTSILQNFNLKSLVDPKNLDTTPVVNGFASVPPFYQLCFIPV
# Assay: Inhibition of CYP2C9 in human liver microsome at 10 uM pre-incubated with compound for 10 mins in presence of NADPH-regenerating system by LC-MS/MS analysis relative to control
# Type: ADME
# Settings: liver microsomes
row,SMILES,inhibition at 10 µM [%]
1,Nc1ccc(S(=O)(=O)Nc2ccnn2-c2ccccc2)cc1 [SULFAPHENAZOLE],87.2

# Biological target: CYP2C19 (Homo sapiens, UniProt P33261)
# Sequence (P33261 whole entry): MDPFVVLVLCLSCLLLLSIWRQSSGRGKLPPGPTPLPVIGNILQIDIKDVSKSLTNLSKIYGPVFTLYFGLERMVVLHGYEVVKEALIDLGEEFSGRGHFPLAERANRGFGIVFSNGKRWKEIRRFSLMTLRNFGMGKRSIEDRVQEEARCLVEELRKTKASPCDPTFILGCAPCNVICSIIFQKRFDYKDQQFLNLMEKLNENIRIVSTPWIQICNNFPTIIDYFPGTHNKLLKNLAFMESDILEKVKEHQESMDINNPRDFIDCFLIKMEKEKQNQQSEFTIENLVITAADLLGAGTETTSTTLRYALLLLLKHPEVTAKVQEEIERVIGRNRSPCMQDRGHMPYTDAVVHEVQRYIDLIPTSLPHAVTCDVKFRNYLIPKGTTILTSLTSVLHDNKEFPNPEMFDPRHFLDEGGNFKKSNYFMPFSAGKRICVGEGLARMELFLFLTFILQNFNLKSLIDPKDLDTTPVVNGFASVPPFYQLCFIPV
# Assay: Inhibition of CYP2C19 in human liver microsome at 10 uM pre-incubated with compound for 10 mins in presence of NADPH-regenerating system by LC-MS/MS analysis relative to control
# Type: ADME
# Settings: liver microsomes
row,SMILES,inhibition at 10 µM [%]
1,"CCC1(c2ccccc2)NC(=O)N(Cc2ccccc2)C1=O (single isomer, unassigned; (+))",88.3

# From ChEMBL document CHEMBL6178014, “Discovery and Administration Optimization of Novel Selective CDK9 Inhibitor, 1-7a-B1, for Improved Pharmacokinetics and Antitumor Efficacy In Vivo” (J Med Chem, 2025)
